Results from patent publication US10981908B2, “Aryl hydrocarbon receptor (AHR) modulator compounds” (PHENEX PHARMACEUTICALS AG, priority 2017, dated 2021).

Biological target: T1, AhR (Homo sapiens, UniProt P35869)
T1 construct: The HepG2 CYP1A1-Luc cells do express basal luciferase activity that can be increased via potent AhR agonists or decreased via potent AhR antagonists; endogenous in cells
T1 sequence (P35869 11-848): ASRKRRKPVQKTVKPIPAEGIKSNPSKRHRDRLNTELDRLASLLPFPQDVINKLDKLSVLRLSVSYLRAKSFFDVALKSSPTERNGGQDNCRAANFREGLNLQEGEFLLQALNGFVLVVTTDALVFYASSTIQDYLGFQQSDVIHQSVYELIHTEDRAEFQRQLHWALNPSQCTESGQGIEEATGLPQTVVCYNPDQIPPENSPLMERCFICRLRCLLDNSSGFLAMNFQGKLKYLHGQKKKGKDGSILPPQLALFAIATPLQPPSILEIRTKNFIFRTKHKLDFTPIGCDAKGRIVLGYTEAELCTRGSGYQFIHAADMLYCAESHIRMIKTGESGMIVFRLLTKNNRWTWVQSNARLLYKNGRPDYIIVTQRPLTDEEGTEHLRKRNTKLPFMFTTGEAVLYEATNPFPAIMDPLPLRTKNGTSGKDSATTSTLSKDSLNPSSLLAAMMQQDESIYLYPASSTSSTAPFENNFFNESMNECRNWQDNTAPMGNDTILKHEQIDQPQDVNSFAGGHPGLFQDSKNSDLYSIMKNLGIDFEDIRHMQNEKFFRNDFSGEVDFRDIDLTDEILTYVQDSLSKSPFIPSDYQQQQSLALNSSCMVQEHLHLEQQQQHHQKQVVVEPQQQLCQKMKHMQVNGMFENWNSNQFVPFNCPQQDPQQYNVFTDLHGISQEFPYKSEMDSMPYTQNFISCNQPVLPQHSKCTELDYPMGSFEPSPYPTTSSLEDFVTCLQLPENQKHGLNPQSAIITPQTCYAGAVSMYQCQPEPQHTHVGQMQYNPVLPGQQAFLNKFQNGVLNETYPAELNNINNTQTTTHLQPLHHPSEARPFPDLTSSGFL
Test: AhR direct luciferase reporter assay in HepG2 cells (HepG2 CYP1A1-LUC)
Assay type: cell-based
Conditions: luciferase activity after 18 hours, medium with no exogenous AhR agonist or 10 nM VAF347, read-out: AhR potency (AhR antagonistic potency, IC50 class)
Description: AhR Direct Luciferase Reporter Assay in HepG2 Cells
A stable cell line (HepG2 CYP1A1-LUC) was used in which part of the promoter region of the human CYP1A1 gene is stably integrated into the genome of human HepG2 hepatocytes (DSZM #ACC 180) in front of a Photinus pyralis Firefly Luciferase gene. A 1210 bp fragment comprising part of the human CYP1A1 promoter was isolated via SacI and BgIII restriction digestion from Lightswitch Clone S714555 (SwitchGearGenomics) and inserted between the SacI and BgIII sites in pGL4.30 (Promega #E8481) in front of the Firefly Luciferase gene. The resulting vector was linearized with NotI, transfected into HepG2 cells (DSMZ #ACC 180) and stably transfected clones selected with 250 μg/ml Hygromycin B. After repetitive rounds of subcloning and testing for robustly regulated luciferase activity after AhR agonist stimulation, a stable clonal HepG2 CYP1A1-Luc cell line was selected.
The HepG2 CYP1A1-Luc cells do express basal luciferase activity that can be increased via potent AhR agonists or decreased via potent AhR antagonists, added to the growth medium of the cells.
In typical reporter assays performed with this cell line, cells are grown in 96-well plates and AhR modulators are titrated into the growth medium in serial dilutions in RPMI-1640 Medium (Sigma #R7509) supplemented with 8,6% fetal calf serum (Sigma #F7524) and containing either no exogenous AhR agonist or 10 nM of the potent AhR agonist VAF347 (Calbiochem #182690). Cells are further cultivated for 18 hours and luciferase activities are determined from extracts of cells in buffers containing D-Luciferine and ATvP using a LUMIstar Optima microplate Luminometer from BMG Labtech.

Row | Compound | IC50
1 | Cn1ncnc1C(=O)Nc1ccc2cc(-c3cc(F)c(F)cc3C(F)F)[nH]c2n1 [Example 1/28, N-(2-(2-(Difluoromethyl)-4,5-difluorophenyl)-1H-pyrrolo[2,3-b]pyridin-6-yl)-1-methyl-1H-1,2,4-triazole-5-carboxamide] | < 100 nM
2 | Cn1ncnc1C(=O)Nc1ccc2cc(-c3ccc(C(F)F)cc3)[nH]c2n1 [Example 1/25, N-(2-(4-(Difluoromethyl)phenyl)-1H-pyrrolo[2,3-b]pyridin-6-yl)-1-methyl-1H-1,2,4-triazole-5-carboxamide] | < 100 nM
3 | Cn1ncnc1C(=O)Nc1ccc2cc(-c3cccc4c3CCC4)[nH]c2n1 [Example 1/16, N-(2-(2,3-Dihydro-1H-inden-4-yl)-1H-pyrrolo[2,3-b]pyridin-6-yl)-1-methyl-1H-1,2,4-triazole-5-carboxamide] | < 100 nM
4 | Cn1ncnc1C(=O)Nc1ccc2cc(-c3cc(C#N)ccc3C(F)(F)F)[nH]c2n1 [4/8] | < 100 nM
5 | Cc1cc2cc(-c3ccccc3C(F)(F)F)[nH]c2nc1NC(=O)c1ncnn1C [Example 1/31, 1-Methyl-N-(5-methyl-2-(2-(trifluoromethyl)phenyl)-1H-pyrrolo[2,3-b]pyridin-6-yl)-1H-1,2,4-triazole-5-carboxamide] | 100 to 1000 nM
6 | Cn1ncnc1C(=O)Nc1ccc2cc(-c3cc(C(F)(F)F)ccc3C(F)(F)F)[nH]c2n1 [Example 1/30, N-(2-(2,5-Bis(trifluoromethyl)phenyl)-1H-pyrrolo[2,3-b]pyridin-6-yl)-1-methyl-1H-1,2,4-triazole-5-carboxamide] | < 100 nM
7 | Cn1nccc1C(=O)Nc1ccc2cc(-c3ccccc3C(F)(F)F)[nH]c2n1 [Example 1/1, 1-Methyl-N-(2-(2-(trifluoromethyl)phenyl)-1H-pyrrolo[2,3-b]pyridin-6-yl)-1H-pyrazole-5-carboxamide] | < 100 nM
8 | Cn1ncnc1C(=O)Nc1ccc2c(C#N)c(-c3ccccc3C(F)F)[nH]c2n1 [Example 14, N-(3-Cyano-2-(2-(difluoromethyl)phenyl)-1H-pyrrolo[2,3-b]pyridin-6-yl)-1-methyl-1H-1,2,4-triazole-5-carboxamide] | < 100 nM
9 | CCc1ccc(C(F)(F)F)c(-c2cc3ccc(NC(=O)c4ncnn4C)nc3[nH]2)c1 [Example 1/29, N-(2-(5-Ethyl-2-(trifluoromethyl)phenyl)-1H-pyrrolo[2,3-b]pyridin-6-yl)-1-methyl-1H-1,2,4-triazole-5-carboxamide] | < 100 nM
10 | Cc1ccccc1-c1cc2ccc(NC(=O)c3ccnn3C)nc2[nH]1 [Example 1, 1-Methyl-N-(2-(o-tolyl)-1H-pyrrolo[2,3-b]pyridin-6-yl)-1H-pyrazole-5-carboxamide] | < 100 nM
11 | Cn1ncnc1C(=O)Nc1ccc2cc(-c3cc(F)ccc3C#N)[nH]c2n1 [4/3] | 100 to 1000 nM

Now from value to compound:

Row | IC50 | Compound
12 | < 100 nM | Cc1nonc1C(=O)Nc1ccc2cc(-c3ccccc3C(F)(F)F)[nH]c2n1 [Example 1/20, 4-Methyl-N-(2-(2-(trifluoromethyl)phenyl)-1H-pyrrolo[2,3-b]pyridin-6-yl)-1,2,5-oxadiazole-3-carboxamide]
13 | < 100 nM | Cn1ncnc1C(=O)Nc1ccc2cc(-c3cc(F)ccc3C(F)F)[nH]c2n1 [Example 4/9, N-(2-(2-(difluoromethyl)-5-fluorophenyl)-1H-pyrrolo[2,3-b]pyridin-6-yl)-1-methyl-1H-1,2,4-triazole-5-carboxamide]
14 | 100 to 1000 nM | O=C(Nc1ccc2cc(-c3ccccc3C(F)(F)F)[nH]c2n1)c1cc2ccoc2cn1 [Example 1/19, N-(2-(2-(Trifluoromethyl)phenyl)-1H-pyrrolo[2,3-b]pyridin-6-yl)furo[2,3-c]pyridine-5-carboxamide]
15 | < 100 nM | Cn1ncnc1C(=O)Nc1ccc2cc(-c3ccccc3C(F)(F)F)[nH]c2n1 [Example 1/6, 1-Methyl-N-(2-(2-(trifluoromethyl)phenyl)-1H-pyrrolo[2,3-b]pyridin-6-yl)-1H-1,2,4-triazole-5-carboxamide]
16 | 100 to 1000 nM | O=C(Nc1ccc2cc(-c3ccccc3C(F)(F)F)[nH]c2n1)c1cccnc1 [Example 1/10, N-(2-(2-(Trifluoromethyl)phenyl)-1H-pyrrolo[2,3-b]pyridin-6-yl) nicotinamide]
